Source: publication PMC7617869, “Molecular glues that inhibit deubiquitylase activity and inflammatory signaling” (Nature Structural & Molecular Biology, 2025)
Values joined by “and” are separate entries in the source; they are usually repeats but may differ in a detail not shown here. Equal entries are not always repeated.

Tests used:
[1] = test system: AMSH* (a STAM2–AMSH fusion); assay: AMSH* IQF DUB activity assay; assay type: biochemical; details: Fig. 1g, AMSH*
Method: (§1) IQF assays were performed in DUB reaction buffer containing 50 mM HEPES–NaOH pH 7.0, 100 mM NaCl, 0.1 mg ml^−1 BSA, 1 mM DTT and 0.03% v/v Brij-35. […] The final concentration of BRISC WT, all BRISC mutants, HsBRISCΔLoop, MmBRISC and DrBRISCΔNΔC was 1 nM. Other enzymes were tested at the following concentrations: 5 nM ARISC (FL), 10 nM CfBRISCΔNΔC, 250 nM AMSH* (ref. [43]), 500 nM USP2 and 1 μM trypsin (Sigma, 9002-07-7). For Michaelis–Menten experiments, 1 nM BRISC with 0–1 μM IQF K63-linked diubiquitin substrate was used. Michaelis–Menten analyses and Lineweaver–Burk plots were calculated using GraphPad Prism (version 9.0).
(§2) To assess enzymatic activity, BRISC complexes were diluted to concentrations between 1 nM and 50 nM. […] Then, 20-μl enzyme reactions were carried out in 384-well black flat-bottom low-flange plates (Corning, 35373). DUB activity was measured using IQF K63-linked diubiquitin (LifeSensors, DU6303) at 50 nM. Cleaved diubiquitin was monitored by measuring fluorescence intensity (excitation, 544 nm; emission, 575 nm; dichroic mirror, 560 nm). Fluorescence intensity was measured every minute for 30 min at 30 °C. Fluorescence intensity units were plotted against time to generate a linear reaction progress curve, where the initial velocity (V0) corresponds to the gradient of the curve (typically achieved within 15 min). IC50 values were calculated using the GraphPad Prism (version 9.0) built-in dose–response equation for inhibitor concentration versus response (variable slope).

BRISC (FL) / BRISCΔNΔC = target: T1, BRISC (FL) / BRISCΔNΔC (Homo sapiens, UniProt P46736+Q15018+Q9NXR7); assay: Mass photometry of BRISC dimer formation; details: for Dimer fraction: 50 nM BRISCΔNΔC
T1 construct: BRISCΔNΔC (MERIT40ΔN, Abraxas 2ΔC); made in house; host or cells: Spodoptera frugiperda Sf9 insect cells (MultiBac)
Method: Immediately before mass photometry measurement, the BRISC–inhibitor mix was diluted in 25 mM HEPES pH 7.5, 150 mM NaCl and 1 mM TCEP to 10 nM BRISC ([…]). Then, 12 μl of the diluted sample was used for the final mass photometry measurement, following autofocus stabilization. […] Next, 0.5 μl of inhibitor was mixed with 19.5 μl of 50 nM BRISCΔNΔC (2.5% v/v DMSO) and incubated at room temperature for 15 min. The BRISC–inhibitor mix was used directly for mass photometry measurement using buffer-free autofocus stabilization.
Microscope coverslips were prepared according to an established protocol. Experiments were performed using a OneMP mass photometer (Refeyn). Videos were recorded for 60 s using AcquireMP (Refeyn) and processed using DiscoverMP (Refeyn). Mass photometry image processing was previously described. Briefly, contrast-to-mass (C2M) calibration was performed using protein standards (66–669 kDa) diluted in buffer (25 mM HEPES pH 7.5, 150 mM NaCl and 1 mM TCEP). […] The mass distribution from each run was in the form of a histogram, where the count refers to each landing event and a Gaussian sum is fitted to the data. The relative amount of each species was calculated as the area of each Gaussian, where σ refers to the s.d. of the fitted Gaussian. The dimer fraction refers to the percentage of the total counts corresponding to the 564-kDa BRISCΔNΔC dimer complex. Curves and half-maximal effective concentration values were fitted and calculated using the GraphPad Prism (version 9.0) built-in dose–response equation for concentration of agonist versus response (variable slope).

trypsin = assay: Trypsin IQF diubiquitin selectivity assay; assay type: biochemical; details: Fig. 1g, Trypsin
Method: BRISC DUB activity was measured at room temperature using 1 nM BRISC and 500 nM IQF diubiquitin K63 substrate (LifeSensors, DU6303) in the presence of DMSO and compounds at 10 μM (final concentrations). Assays were performed in 384-well black flat-bottom low-flange plates (Corning, 35373) in buffer containing 50 mM HEPES–NaOH pH 7.0, 100 mM NaCl, 1 mg ml^−1 BSA, 1 mM DTT and 0.03% v/v Brij-35. Then, 10 μl of twofold concentrated enzyme stock was dispensed, followed by transfer of 200 nl of compounds (1 mM stock) using a 384-pin tool and a 15-min incubation at room temperature. Then, 10 μl of twofold concentrated substrate stock was added and the reaction was monitored by measuring fluorescence intensity (excitation, 540 nm; emission, 580 nm) after 20-min incubation at room temperature and ~50% of substrate was consumed. Orthogonal assays for verification of H20 and P12 hit compounds using USP2 (100 nM) and trypsin (125 nM) were performed in identical conditions.
as §1, §2

Dimer fraction (BRISC (FL) / BRISCΔNΔC; [Inhibitor (μM)] 2500): 0.36 and 0.38 and 0.35
Dimer fraction (BRISC (FL) / BRISCΔNΔC; [Inhibitor (μM)] 10000): 0.31 and 0.43 and 0.4
Compound: O=C(NC1C2CNCC21)c1nn(C(=O)c2c(Cl)cccc2Cl)cc1NC(=O)c1c(Cl)cccc1Cl (stereo not shown) [FX-171-C]
Normalised V0 ([1]; FX-171-C 0.02 μM): 1.102 and 0.9959 and 1.122
Normalised V0 ([1]; FX-171-C 0.0399999 μM): 1.076 and 0.9687 and 1.118
Normalised V0 ([1]; FX-171-C 0.0599997 μM): 1.166 and 0.9974 and 1.026
Normalised V0 ([1]; FX-171-C 0.0799994 μM): 1.155 and 1.046 and 1.034
Normalised V0 ([1]; FX-171-C 0.119998 μM): 1.236 and 1.107 and 1.142
Normalised V0 ([1]; FX-171-C 0.199996 μM): 1.177 and 1.065 and 1.2539
Normalised V0 ([1]; FX-171-C 0.499975 μM): 0.9946 and 0.8997 and 1.162
Normalised V0 ([1]; FX-171-C 0.799936 μM): 1.22 and 0.8896 and 1.186
Normalised V0 ([1]; FX-171-C 1.25984 μM): 1.058 and 1.1 and 1.143
Normalised V0 ([1]; FX-171-C 1.9996 μM): 1.14 and 1.15 and 1.191
Normalised V0 ([1]; FX-171-C 3.159 μM): 1.081 and 1.064 and 1.2182
Normalised V0 ([1]; FX-171-C 5.19739 μM): 0.9976 and 1.106 and 1.16
Normalised V0 ([1]; FX-171-C 7.99364 μM): 1.138 and 1.066 and 1.161
Normalised V0 ([1]; FX-171-C 12.7839 μM): 1.171 and 0.9747 and 1.21
Normalised V0 ([1]; FX-171-C 19.96 μM): 0.7795 and 0.741 and 1.28
Normalised V0 ([1]; FX-171-C 31.4999 μM): 1.112 and 1.039 and 1.002
Normalised V0 ([1]; FX-171-C 50.147 μM): 1.1142 and 0.9322 and 1.253
Normalised V0 ([1]; FX-171-C 79.7601 μM): 1.095 and 0.9276 and 1.158
Normalised V0 ([1]; FX-171-C 125.99 μM): 1.097 and 0.9974 and 1.112
Normalised V0 ([1]; FX-171-C 199.922 μM): 0.8792 and 0.8896 and 0.9452
dimer formation with increasing inhibitor concentration (mass photometry) (BRISC (FL) / BRISCΔNΔC): dose-dependent increase in dimer formation
Normalised V0 (trypsin; FX-171-C 0.02 μM): 0.9754 and 1.082 and 1.037
Normalised V0 (trypsin; FX-171-C 0.0399999 μM): 0.8958 and 1.072 and 0.9551
Normalised V0 (trypsin; FX-171-C 0.0599997 μM): 0.994 and 1.174 and 1.005
Normalised V0 (trypsin; FX-171-C 0.0799994 μM): 0.9908 and 1.085 and 0.9856
Normalised V0 (trypsin; FX-171-C 0.119998 μM): 0.909 and 1.102 and 1.137
Normalised V0 (trypsin; FX-171-C 0.199996 μM): 1.048 and 1.0751 and 0.9569
Normalised V0 (trypsin; FX-171-C 0.499975 μM): 0.9677 and 1.122 and 0.9918
Normalised V0 (trypsin; FX-171-C 0.799936 μM): 0.9633 and 1.093 and 0.8806
Normalised V0 (trypsin; FX-171-C 1.25984 μM): 1.083 and 0.9949 and 1.069
Normalised V0 (trypsin; FX-171-C 1.9996 μM): 1.032 and 1.136 and 0.9684
Normalised V0 (trypsin; FX-171-C 3.159 μM): 0.959 and 1.075 and 1.119
Normalised V0 (trypsin; FX-171-C 5.19739 μM): 1.013 and 1.118 and 1.082
Normalised V0 (trypsin; FX-171-C 7.99364 μM): 1.036 and 1.142 and 1.053
Normalised V0 (trypsin; FX-171-C 12.7839 μM): 1.107 and 1.095 and 0.9652
Normalised V0 (trypsin; FX-171-C 19.96 μM): 0.9382 and 0.9859 and 0.9654
Normalised V0 (trypsin; FX-171-C 31.4999 μM): 0.9264 and 1.08 and 0.8456
Normalised V0 (trypsin; FX-171-C 50.147 μM): 0.8123 and 0.9453 and 0.8818
Normalised V0 (trypsin; FX-171-C 79.7601 μM): 0.7444 and 0.9554 and 0.7546
Normalised V0 (trypsin; FX-171-C 125.99 μM): 0.6817 and 0.8207 and 0.6739
Normalised V0 (trypsin; FX-171-C 199.922 μM): 0.4322 and 0.4467 and 0.4966
